Experimental data reported in article PMC8297954 (Frontiers in Microbiology, 2021).
Entries after “also recorded” stand apart in the source; their conditions may differ. Where two headings read alike, the source gives them in different places.

Legend:
[1] = system: SARS CoV 3a protein; conditions: Xenopus oocytes ref Schwarz et al., 2014; cited from earlier work
[2] = system: transmembrane domain of SARS CoV E protein; conditions: lipid bilayers ref Torres et al., 2007; cited from earlier work
[3] = system: HEK293 cells
[4] = system: HCoV-229E E protein; conditions: cited from earlier work
[5] = system: MHV; conditions: cited from earlier work
[6] = system: MHV E protein; conditions: cited from earlier work
[7] = system: HCoV-229E; conditions: cited from earlier work
[8] = system: viral protein U of human immunodeficiency type 1 virus; conditions: cited from earlier work

| Compound | effect on viability of control cells at increasing concentrations [3] | MTT pRK control ([3]; human) | inhibition of viral protein U [8] | also measured |
| --- | --- | --- | --- | --- |
| O=c1c(O[C@@H]2O[C@@H](CO)[C@H](O)[C@H]2O)c(-c2ccc(O)cc2)oc2cc(O)cc(O)c12 [juglanin] | – | – | – | inhibition of 3a ion channel [1]: most efficient |
| NC12CC3CC(CC(C3)C1)C2 [Amantadine, amantadine, reference compound] | – | – | – | inhibition of wild-type transmembrane peptides [2]: inhibited; MTT pRK control [3]: neutral |
| NC(N)=NC(=O)c1nc(Cl)c(N2CCCCCC2)nc1N [HMA, 5-(N,N-hexamethylene)amiloride] | cytotoxic | 10–50 ↓ | – | inhibition of E protein ion channel conductance [4]: inhibits; inhibition of virus replication [5]: inhibits replication; inhibition of E protein ion channel conductance [6]: inhibits; inhibition of virus replication [7]: inhibits replication |
| CCCCCCC[C@H](O)CC(=O)CCc1ccc(O)c(OC)c1 [8-Gingerol, 8-gingerol] | – | 50 ↓ | – | – |
| CC(N)C12CC3CC(CC(C3)C1)C2 (stereo not shown) [Rimantadine, rimantadine, reference compound] | – | – | – | MTT pRK control [3]: neutral |
| Oc1ccc(/C=C/c2cc(O)cc(O)c2)cc1 [Resveratrol, resveratrol] | – | – | – | MTT pRK control [3]: neutral |
| O=C(O[C@@H]1Cc2c(O)cc(O)cc2O[C@@H]1c1cc(O)c(O)c(O)c1)c1cc(O)c(O)c(O)c1 [EGCG, epigallocatechin gallate] | – | 5–50 ↑ | – | – |
| O=c1c(O)c(-c2ccc(O)cc2)oc2cc(O)cc(O)c12 [Kaempferol, kaempferol] | proliferative | 5–50 ↑ | not | inhibition of 3a ion channel [1]: blocks |
| (–)epigallocatechin | – | – | not | – |
| COc1ccc(-c2cc(=O)c3c(OC)c(OC)c(OC)c(OC)c3o2)cc1OC [Nobiletin, nobiletin] | – | 5–50 ↑ | – | – |
| O=c1c(-c2ccc(O)cc2)coc2cc(O)cc(O)c12 [Genistein, genistein] | proliferative | 20–50 ↑ | inhibits; also recorded: able to inhibit | – |
| CCCCC[C@H](O)CC(=O)CCc1ccc(O)c(OC)c1 [6-Gingerol, 6-gingerol] | – | – | – | MTT pRK control [3]: neutral |
| O=c1c(O)c(-c2ccc(O)c(O)c2)oc2cc(O)cc(O)c12 [Quercetin, quercetin] | proliferative | 10–50 ↑ | not | – |
| (–)epicatechin | – | – | not | – |
| O=C1C[C@@H](c2ccc(O)cc2)Oc2cc(O)cc(O)c21 [Naringenin, naringenin] | – | 10–50 ↑ | – | – |
| O=c1cc(-c2ccc(O)cc2)oc2cc(O)cc(O)c12 [Apigenin, apigenin] | cytotoxic | 5–10↑ 20–50↓ | – | concentrations that were cytotoxic / induced cell death ([3]; human): 20 to 50 µM |
